The source of these data is PMC9137614, “TXH11106: A Third-Generation MreB Inhibitor with Enhanced Activity against a Broad Range of Gram-Negative Bacterial Pathogens” (Antibiotics, 2022).

The structures appear in SMILES notation. Read-outs that look alike come from different tables or passages of the source.

This assay addresses T1, MreB (EcMreB) (Escherichia coli, UniProt P0A9X4).
T1 construct: N-terminal 8× His-tagged E. coli MreB (mreB from ATCC 25922), wild-type
The experiment in a line: malachite green ATPase assay with purified EcMreB; Eadie–Hofstee kinetics. The format is biochemical.

T1 sequence (P0A9X4 whole entry): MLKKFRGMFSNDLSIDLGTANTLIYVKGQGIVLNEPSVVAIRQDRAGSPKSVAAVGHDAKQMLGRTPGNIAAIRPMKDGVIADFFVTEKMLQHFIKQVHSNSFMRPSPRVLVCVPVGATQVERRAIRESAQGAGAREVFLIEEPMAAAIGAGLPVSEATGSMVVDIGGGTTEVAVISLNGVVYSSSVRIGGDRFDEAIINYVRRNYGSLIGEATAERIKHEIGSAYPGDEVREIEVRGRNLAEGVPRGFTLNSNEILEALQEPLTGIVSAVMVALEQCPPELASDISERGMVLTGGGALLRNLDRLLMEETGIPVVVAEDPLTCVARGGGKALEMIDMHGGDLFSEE

For the molecule `N=C(N)SCc1ccc(Cl)c(Cl)c1` [A22], the 50% inhibitory concentration (IC50) (in general, the midpoint of a concentration-inhibition curve) was found to be 447 ± 87 µM.
`NC1CCCc2c1[nH]c1ccc(Br)cc21` (stereo not drawn) [CBR-4830]: the IC50 (read-out: IC50) came out at 49 ± 8 µM.
Turning to `NC1CCCc2c1[nH]c1ccc(Cl)c(Cl)c21` (stereo not drawn) [compound 4, 5,6-dichloro-2,3,4,9-tetrahydro-1H-carbazol-1-amine], the 50% inhibitory concentration (IC50) (read-out: IC50) came out at 14 ± 2 µM.
